From patent US5670506A, “Halogen, isothiocyanate or azide substituted xanthines” (Cell Therapeutics, Inc., priority 1993, dated 1997) come the findings set out here.

Each structure is given as a SMILES string. Entries after “also recorded” stand apart in the source; their conditions may differ. Where only a bound is given, the exact number is not on record here.

What all share (format): cell-based
In series [1] the test system is CMV promoter activity in transformed (adenovirus) cells. Nature of the series: CMV promoter assay (gene transcription and translation, cytotoxic activity). To be noted: read-out: IC50 (μM), CMV promoter assay. An excerpt:
This example illustrates data regarding proliferative activity of various inventive compounds for inducting CMV promoter activity. The CMV promoter assay measures gene transcription and translation activity wherein any active compounds will nave cytotoxic activity to inhibit cellular protein synthesis machinery in transformed (adenovirus) cells.

The subject of series [2] is transformed cells (Ras 3T3) and normal 3T3 cells. Nature of the series: cytotoxicity in transformed and normal 3T3 cells. To be noted: FIG. 9; five compounds. The method, then: A similar experiment is shown in FIG. 9 for five inventive compounds (see Table 1 […] for chemical names) showing differential cytotoxicity for the same normal and transformed cells.
Each inventive compound is investigated for cytotoxicity to determine appropriate doses for biological activity assays and to prevent cytotoxic reactions in in vitro assays when characterizing activity. Cells (e.g., NIH-3T3, Ras transformed 3T3 cells, malignant melanoma LD2 cells, etc.) are added to microtiter plates and drug is added about two days after plating. Cell viability is determined using a fluorescent viability stain (e.g., 2',7'-bis-(2-carboroxyethyl)-5-(and -6)-carboxyfluorescein acetoxymethyl ester, BCECF excitation 488 nm and emission 525 nm) 24, 48 or 72 hours after addition of the drug.
This example illustrates a comparison of cytotoxicity determinations for CT1595 in transformed cells (Ras 3T3) and in normal 3T3 cells at drug doses of 1, 10 and 100 μM in in vitro cell culture conditions (FIG. 8). […] A similar experiment is shown in FIG. 9 for five inventive compounds (see Table 1 above for chemical names) showing differential cytotoxicity for the same normal and transformed cells.

The test system of series [3] is TNF release from monocytes in whole blood. Kind of series: ex vivo human TNF model, LPS-mediated TNF release in whole blood. To be noted: FIG. 14. As for the experimental part:
This model adds LPS to whole blood (normal human volunteers) to trigger a dose-dependent synthesis and extracellular release of TNF according to Desch et al. (Lymphokine Res. 8:141, 1989). The ex vivo model examines whether LPS-mediated release of TNF from monocytes in whole blood can be block by an inventive compound.
An ex vivo human sepsis model is described in Desch et al., Lymphokine Res. 8:141, 1989 and in Ooi et al., J. Exp. Med. 174:649, 1991. Briefly, whole blood from humans is incubated with LPS (endotoxin). TNF released from cells (mostly from monocytes) is measured. The inventive compounds lower TNF levels as compared with untreated controls in this model.
This example illustrates a comparative experiment comparing CT1595, CT1529 and CT2519 in an ex vivo human TNF model described herein. This assay is a predictive model for treatment and prevention of septic shock and sepsis syndrome. This model adds LPS to whole blood (normal human volunteers) to trigger a dose-dependent synthesis and extracellular release of TNF according to Desch et al. (Lymphokine Res. 8:141, 1989). The ex vivo model examines whether LPS-mediated release of TNF from monocytes in whole blood can be block by an inventive compound.

Series [4] deals with human stromal cells. Kind of series: inhibition of proliferation of human stromal cells stimulated with PDGF. To be noted: FIG. 7; 50 ng/ml PDGF-BB, in words. As for the experimental part: This assay is a model for restenosis and treatment of atherosclerosis and coronary artery disease. Stromal cells were starved in serum-free media for one day and then stimulated with 50 ng/ml PDGF-BB. The drags were added at the indicated concentrations one hour prior to PDGF stimulation. Tritiated thymidine was added for one day at the time of PDGF stimulation and the cells were harvested and counted by liquid scintillation counting 24 hrs later. Background counts (i.e., starved cells) were approximately 1% of control levels.
Another assay for measuring activity of the inventive compounds involves determining PDGF (platelet derived growth factor) proliferative response using human-derived stromal cells. Human stromal cells are plated (e.g., about 2000 cells per well) in defined media (e.g., 69% McCoy's, 12.5% fetal calf serum, 12.5% horse serum, 1% antibiotics, 1% glutamine, 1% vitamin supplement, 0.8% essential amino acids, 1% sodium pyruvate, 1% sodium bicarbonate, 0.4% non-essential amino acids and 0.36% hydrocortisone). Two to three days later, the stromal cells are starved in serum-free media. Twenty four hours later, the cells are treated with a stimulating agent, such as PDGF-AA, PDGF-BB or basic FGF (fibroblast growth factor) with or without IL-1α or TNF, and tritiated thymidine. Cell proliferation is determined by liquid scintillation counting.
This assay is a model for restenosis and treatment of atherosclerosis and coronary artery disease. Stromal cells were starved in serum-free media for one day and then stimulated with 50 ng/ml PDGF-BB. The drugs were added at the indicated concentrations one hour prior to PDGF stimulation. Tritiated thymidine was added for one day at the time of PDGF stimulation and the cells were harvested and counted by liquid scintillation counting 24 hrs later. Background counts (i.e., starved cells) were approximately 1% of control levels.

The subject of series [5] is mast cells. Kind of series: mast cell degranulation, serotonin release assay. To be noted: 100 μM. The source says:
A serotonin release assay is utilized to study the utility of the inventive compounds for treatment of asthma and allergy. This assay measures mast cell degranulation, which is an early phase reaction to allergen challenge. Mast cells grown in tissue culture are first loaded with ^3 H serotonin, which is incorporated into the granules in the cells. The mast cells are sensitized with antigen specific monoclonal IgE, and then triggered to degranulate with the specific antigen (dinitrophenol bound to BSA (DNP)). When the cells degranulate, ^3 H Serotonin is released into the medium, and can be measured directly. The ability of the inventive compounds to inhibit the degranulation response is determined by the decrease in ^3 H Serotonin released in the presence of drug and is represented as % INHIBITION. The IC50 of any given compound is determined by the ability of that compound to inhibit degranulation by 50%.
Specifically, the serotonin release assay seeds 2×10^5 cells in 0.5 ml medium in duplicate for spontaneous release, IgE+DNP, IgE+DNP+EtOH (vehicle control), and inventive compounds. One μCi [^3H ]-Serotonin/ml (i.e., 0.5 μCi/well) (NEN Research Products, cat. #NET-398 Hydroxytryptamine Binoxalate, 5-[1,2-^3 H(N)]-(Serotonin Binoxalate, [1,2-^3 H(N)]-)) and 1 μl/ml IgE is added. The cells are incubated for 18 hours at 37° C. in 5% CO2, washed twice with 0.5 ml Isotonic Buffer (25 mM disodium PIPES pH 7.1,100 mM NaCl, 5 mM KCl, 5 mM glucose, 0.4 mM MgCl2, 1 mM CaCl2, 0.1% BSA), and sterile filtered. 250 μl Isotonic Buffer is added per well and the plates are equilibrated in an incubator for about 10 min. Drug is added and cells are activated with 40 ng/ml DNP-BSA (1 mg/ml Diluted 1:200 in Isotonic Buffer) for 45 minutes using 2 μl/250 μl. Spontaneous release is determined in incubated cells with 250 μl Isotonic Buffer for 45 minutes and the reaction is stopped by removing supernatant and centrifuging at ~4000 rpm in microfuge for 15 seconds to remove any detached cells. Released radiolableled serotonin is counted. To determine amount of ^3 H-serotonin incorporated into the cells, (a) remove Isotonic Buffer and lyse cells by adding 250 μl 1% Triton-X100 in PBS, (b) add to 5 ml scintillation fluid, (c) wash 2× with Triton/PBS, and (d) add washes to scintillation tube. Percent serotonin release is calculated by dividing the amount of released serotonin by the sum of incorporated plus released serotonin and correcting for spontaneous released serotonin. Compound inhibition is calculated by dividing the percent serotonin release in the presence of a compound by the percent serotonin release in the absence of the compound.
This assay is described above and provides an in vitro model for an allergy and asthma therapeutic compound.

`Cn1cnc2c1c(=O)n(CCCCCCCl)c(=O)n2C` [CT1525, 1-(6-chlorohexyl)-3,7-dimethylxanthine]: in series [1], the concentration for half-maximal inhibition (IC50) is above 500 µM.
In the case of `CC(CCCCn1c(=O)c2c(ncn2C)n(C)c1=O)OC(=O)CCl` (stereo not shown) [CT1529, 1-(5-(chloroacetoxy)hexyl)-3,7-dimethylxanthine], the “cytotoxic activity, normal and transformed 3T3 cells” value in series [2] is recorded as “significant cytotoxic activity”. Further, the “block of LPS-mediated TNF release” value in series [3] is reported as “could block TNF release in a dose-dependent fashion; also recorded: most effective agent at lower doses”. Further, the IC50 in series [1] was 100 µM.
As for `Cn1cnc2c1c(=O)n(CCCCCCBr)c(=O)n2C` [CT1589, 1-(6-bromohexyl)-3,7-dimethylxanthine], in series [4], the “inhibition of human stromal cell proliferation” value was “strongly inhibit proliferation”. Also, in series [1], the IC50 was 125 µM. In series [5], this molecule gave an inhibition at 100 µM of 53%.
For the molecule `Cn1cnc2c1c(=O)n(CCCCCCOC(=O)CCl)c(=O)n2C` [CT1527, 1-(6-(chloroacetoxy)hexyl)-3,7-dimethylxanthine], the IC50 in series [1] was 200 µM.
In the case of `CC(F)CCCCn1c(=O)c2c(ncn2C)n(C)c1=O` (stereo not shown) [CT1577, 1-(5-fluorohexyl)-3,7-dimethylxanthine], the “inhibition of human stromal cell proliferation” value in series [4] is listed as “strongly inhibit proliferation”. The IC50 in series [1] was above 500 µM. Besides, at 100 µM the inhibition in series [5] was 46%.
For `CC(=O)OC(CBr)CCCCn1c(=O)c2ccccc2n(C)c1=O` (stereo not shown) [CT1205, 3-(5-acetoxy-6-bromohexyl)-1-methylbenzoyleneurea], the concentration for half-maximal inhibition (IC50) in series [1] was 200 µM.
As for `CC(=O)OC(CBr)CCCCCCn1c(=O)c2c(ncn2C)n(C)c1=O` (stereo not shown) [CT1514, 1-(7-acetoxy-8-bromooctyl)-3,7-dimethylxanthine], the “inhibition of human stromal cell proliferation” value in series [4] is recorded as “strongly inhibit proliferation”. Moreover, in series [1], the IC50 is above 500 µM.
`CC(=O)OC(CBr)CCCCCCCn1c(=O)c(C)cn(C)c1=O` (stereo not shown) [CT1908, 3-(8-acetoxy-9-bromononyl)-1-methylthymine]: the IC50 in series [1] was 50 µM.
As for `CC(=O)OC(CBr)CCCCCCCCn1c(=O)c2c(ncn2C)n(C)c1=O` (stereo not shown) [CT1583, 1-(9-acetoxy-10-bromodecyl)-3,7-dimethylxanthine], the “inhibition of human stromal cell proliferation” value in series [4] is given as “strongly inhibit proliferation”. In addition, in series [1], the IC50 is above 500 µM.
Regarding `Cn1cnc2c1c(=O)n(CCCCC(O)CN=[N+]=[N-])c(=O)n2C` (stereo not shown) [CT1517, 1-(6-azido-5-hydroxyhexyl)-3,7-dimethylxanthine], the “inhibition of human stromal cell proliferation” value in series [4] was “strongly inhibit proliferation”. Besides, the IC50 in series [1] was above 500 µM.
